# Source: BindingDB's records for patent US20250304537 (Repare Therapeutics, 2025)
# Target: T1, Membrane-associated tyrosine- and threonine-specific cdc2-inhibitory kinase (Homo sapiens, UniProt Q99640)
# T1 sequence (Q99640 whole entry): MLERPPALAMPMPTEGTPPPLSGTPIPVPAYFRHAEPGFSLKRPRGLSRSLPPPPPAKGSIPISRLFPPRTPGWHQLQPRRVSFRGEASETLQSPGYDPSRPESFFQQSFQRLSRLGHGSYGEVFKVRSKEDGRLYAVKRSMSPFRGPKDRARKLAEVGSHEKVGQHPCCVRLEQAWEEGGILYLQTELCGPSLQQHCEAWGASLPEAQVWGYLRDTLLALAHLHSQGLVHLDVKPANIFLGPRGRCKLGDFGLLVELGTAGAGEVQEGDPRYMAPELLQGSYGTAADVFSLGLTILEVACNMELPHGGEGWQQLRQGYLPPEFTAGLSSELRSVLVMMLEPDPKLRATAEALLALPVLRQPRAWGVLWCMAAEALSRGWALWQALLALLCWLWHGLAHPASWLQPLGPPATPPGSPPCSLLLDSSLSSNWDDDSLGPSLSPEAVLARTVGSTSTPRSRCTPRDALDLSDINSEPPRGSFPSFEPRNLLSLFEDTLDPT
# Assay: Enzymatic Assay
# Protocol: Detection of Myt1 kinase activity utilized a recombinant human Myt1 kinase assay measuring the hydrolysis of ATP using a commercially available ADP-Glo Assay (ADP-Glo™ Kinase Assay from Promega, 10 000 assays, #V9102). Briefly, 5 μL recombinant human Myt1 (full length PKMYT1 recombinant human protein expressed in insect cells from Thermo Fisher #A33387; ˜80% purity) was prepared in reaction buffer (70 mM HEPES, 3 mM MgCl2, 3 mM MnCl2, 50 μg/ml PEG 20000, 3 μM Na-orthovanadate, 1.2 mM DTT) and added to 384 well white polystyrene, flat bottom well, non-treated, microplate (Corning #3572). After this, 5 μL of compounds (diluted in reaction buffer to 0.5% DMSO) was added to the microplate and the plate was spun briefly and incubated at 22° C. for 15 minutes. Ultra-Pure Adenosine Triphosphate (ATP) solution (ADP-Glo kit from Promega) was diluted in reaction buffer and 5 μL was added to the microplate, spun down briefly and incubated for 60 minutes at 30° C. The final Myt1 enzyme concentration was 18 nM and the final ATP concentration was 10 μM. After the 60-minute incubation, 15 μL of ADP-Glo reagent was added and the plate was spun briefly and sealed and incubated in the dark for 40 minutes at 22° C. Following this, 30 μL of kinase detection reagent was added per well and the plate was spun briefly, sealed and incubated for 45-60 minutes at 22° C. in the dark. Luminescence was read using the Envision (250 ms integration). The IC50 and the % max inhibition were calculated for each inhibitor compound tested.
row,SMILES,IC50 [nM]
1,"Cc1ccc(O)cc1-c1nc(C2CCOCC2)nc(C(N)=O)c1N [US20250304537, Compound 44]",3180
2,"NC(=O)c1nc(-c2ccnnc2)cc(-c2cccc3[nH]ncc23)c1N [US20250304537, Compound 69]",131
3,"Cc1ccc(O)c(C)c1-c1nc(-c2ccnnc2)cc(C(N)=O)c1N [US20250304537, Compound 77]",27
4,"Cc1ccc2[nH]ncc2c1-c1nc(-c2ccnnc2)cc(C(N)=O)c1N [US20250304537, Compound 120]",329
5,"Cc1ccc2[nH]ncc2c1-c1nc(-c2ccc3[nH]ncc3c2)nc(C(N)=O)c1N [US20250304537, Compound 130]",66
6,"Cc1ccc2[nH]ncc2c1-c1nc(-c2cccc(N3CCN(C)CC3)c2)nc(C(N)=O)c1N [US20250304537, Compound 132]",37
7,"Cc1ccc2[nH]ncc2c1-c1nc(-c2ccc(C#N)cc2)nc(C(N)=O)c1N [US20250304537, Compound 133]",39
8,"Cc1ccc2[nH]ncc2c1-c1nc(-c2ccc(N3CCN(C)CC3)cc2)nc(C(N)=O)c1N [US20250304537, Compound 134]",142
9,"COc1cc(-c2nc(C(N)=O)c(N)c(-c3c(C)ccc4[nH]ncc34)n2)ccn1 [US20250304537, Compound 135]",22
10,"Cc1cc(-c2nc(C(N)=O)c(N)c(-c3c(C)ccc4[nH]ncc34)n2)ccn1 [US20250304537, Compound 136]",25
11,"Cc1ccc2[nH]ncc2c1-c1cc(-c2ccnc(OCC(F)(F)F)n2)nc(C(N)=O)c1N [US20250304537, Compound 165]",586
12,"Cc1ccc2[nH]ncc2c1-c1cc(-c2ccnc(OCc3ccco3)n2)nc(C(N)=O)c1N [US20250304537, Compound 213]",7
13,"CC(=O)N1CCN(c2nccc(-c3cc(-c4c(C)ccc5[nH]ncc45)c(N)c(C(N)=O)n3)n2)CC1 [US20250304537, Compound 215]",7
14,"CCc1ccc2[nH]ncc2c1-c1nc(-c2cccnc2)nc(C(N)=O)c1N [US20250304537, Compound 222]",> 2000
15,"Cc1ccc2[nH]ncc2c1-c1cc(-c2cccc(-c3ccccn3)n2)nc(C(N)=O)c1N [US20250304537, Compound 236]",46
16,"Cc1ccc2[nH]ncc2c1-c1cc(-c2ccnc(OCc3nccn3C)n2)nc(C(N)=O)c1N [US20250304537, Compound 301]",4
17,"Cc1ccc2[nH]ncc2c1-c1cc(-c2ccnc(OCC3(C#N)CC3)n2)nc(C(N)=O)c1N [US20250304537, Compound 324]",10
18,"Cc1ccc2[nH]ncc2c1-c1cc(-c2ccnc(N[C@H]3CCOC[C@@H]3O)n2)nc(C(N)=O)c1N [US20250304537, Compound 368]",15
19,"Cc1ccc2[nH]ncc2c1-c1nc(-c2cccnc2O)nc(C(N)=O)c1N [US20250304537, Compound 598]",27
